Data published in patent US4639444A, “3,5-dialkyl-4,6-diaryl-tetrahydro-2H-13,5-thiadiazine-2-thione derivative, process for its production and antihyperlipidemic agent containing it” (Nissan Chemical Industries Ltd., priority 1984, dated 1987).

How the values were obtained:
[1] = test system: emulsion-induced hyperlipidemic rats; test: antihyperlipidemic activity in emulsion-induced hyperlipidemic rats; type: in vivo; details: Rattus norvegicus, po, 72 h, 300 mg/kg daily via stomach tube, 3 days, male S.D. rats, lipids emulsion, versus control group; for change in vivo at 300 mg/kg: "-" = reduction rate, read-out: Increase rate of serum HDL-Chol.; for inhibition in vivo at 300 mg/kg: read-out: Reduction rate of serum Chol.
Procedure: The antihyperlipidemic activity in emulsion-induced hyperlipidemic rats: Male S. D. rats weighing 80-90 g (4 weeks old) were used. They were devided into groups of 5 to 6 rats each. The test compounds suspended in 0.5% CMC-Na(carboxymethyl cellulose sodium salt) were given to the rats in a daily dose of 4.0 ml/kg (i.e. 300 mg/kg of the test compounds) via stomach tube every 10:00 a.m. After 30 min., lipids emulsion having the following composition was orally given to the rats in an amount of 2.5 ml per rat. During the experimental period of 3 days, the rats were fed on a standard commercial diet and water ad libitum. […] The total cholesterol and HDL cholesterol were measured. The weight of the liver was measured. To the control group, only the aqueous CMC-Na solution and the lipids emulsion were given. The fractionation of lipoproteins was conducted by a dextran sulfate-MgCl2 precipitation method. Cholesterol in serum was measured by means of a cholesterol measuring kit (Cholesterol C-Test Wako, manufactured by Wako Junyaku Co., Ltd.), and cholesterol in HDL was measured by means of NC Hi-Set, manufactured by Nippon Chemiphar Co., Ltd. In the following description, cholesterol is referred to as "Chol". Further, the reduction rate of Chol was calculated by the following equation. [formula] where A is the amount of serum Chol (mg/dl) of the control group, and B is the amount of serum Chol (mg/dl) of the group to which the therapeutic agent was administered. Likewise, the increase rate of serum HDL-Chol was calculated by the following equation. [formula] where C is the amount of serum HDL-Chol (mg/dl) of the control group, and D is the amount of serum HDL-Chol (mg/dl) of the group to which the therapeutic agent was administered.

[2] = literature, and its derivatives; cited from earlier work
[3] = animal experiments, Svoboda and Azarnoff, Cancer Res. 39, 3419 (1979); cited from earlier work
[4] = acute toxicity (mortality after seven days); details: mouse, in vivo, po, 4000 mg/kg p.o., male ddY mice
Procedure: The test compounds suspended in 0.5% CMC-Na were administered p.o. to male ddY mice. The acute toxicity was determined based on the mortality after seven days. In respect of the Compound Nos. 1, 2, 3, 4, 6, 7, 10, 12 and 13 of the present invention, the mortality was 0% even at a dose of as high as 4000 mg/kg by oral administration.

Compound	change in vivo at 300 mg/kg [1]	inhibition in vivo at 300 mg/kg [1]	side effects reported [2]	hepatic carcinoma [3]	mortality at 168 h [4]
CCOC(=O)C(C)(C)Oc1ccc(Cl)cc1 [Clofibrate, reference compound]	-8%	45%	myalgia or hepatic insufficiency,and they are likely to lead to gallstone formation	brings about hepatic carcinoma on animal experiments	
COc1ccc(C2SC(=S)N(C)C(c3ccc(OC)cc3)N2C)cc1 (stereo not shown) [Compound No. 1, 3,5-Dimethyl-4,6-di(p-methoxyphenyl)-tetrahydro-2H-1,3,5-thiadiazine-2-thione]	53%	42%			0%
COc1cccc(C2SC(=S)N(C)C(c3cccc(OC)c3)N2C)c1 (stereo not shown) [Compound No. 2]	25%	41%			0%
COc1ccccc1C1SC(=S)N(C)C(c2ccccc2OC)N1C (stereo not shown) [Compound No. 3]	33%	32%			0%
Cc1ccc(C2SC(=S)N(C)C(c3ccc(C)cc3)N2C)cc1 (stereo not shown) [Compound No. 4]	99%	49%			0%
Cc1cccc(C2SC(=S)N(C)C(c3cccc(C)c3)N2C)c1 (stereo not shown) [Compound No. 5]	52%	44%			
Cc1ccccc1C1SC(=S)N(C)C(c2ccccc2C)N1C (stereo not shown) [compound 6]	61%	40%			0%
CCOc1ccccc1C1SC(=S)N(C)C(c2ccccc2OCC)N1C (stereo not shown) [compound 7]	14%	37%			0%
CN1C(=S)SC(c2ccc(F)cc2)N(C)C1c1ccc(F)cc1 (stereo not shown) [compound 8]	37%	26%			
CC(C)c1ccc(C2SC(=S)N(C)C(c3ccc(C(C)C)cc3)N2C)cc1 (stereo not shown) [compound 9]	56%	30%			
CN1C(=S)SC(c2ccc(Oc3ccccc3)cc2)N(C)C1c1ccc(Oc2ccccc2)cc1 (stereo not shown) [compound 10]	-23%	53%			0%
CSc1ccc(C2SC(=S)N(C)C(c3ccc(SC)cc3)N2C)cc1 (stereo not shown) [compound 11]	53%	13%			
COc1ccc(C2SC(=S)N(C)C(c3ccc(OC)cc3OC)N2C)c(OC)c1 (stereo not shown) [compound 12]	46%	31%			0%
CN1C(=S)SC(c2ccc3c(c2)OCO3)N(C)C1c1ccc2c(c1)OCO2 (stereo not shown) [compound 13]	54%	52%			0%
COc1cc(C2SC(=S)N(C)C(c3cc(OC)c(OC)c(OC)c3)N2C)cc(OC)c1OC (stereo not shown) [compound 14]	6%	19%			
CCN1C(=S)SC(c2ccccc2)N(CC)C1c1ccccc1 (stereo not shown) [compound 15]	31%	45%			
COc1cccc(C2SC(=S)N(C)C(c3cccc(OC)c3OC)N2C)c1OC (stereo not shown) [compound 16]	44%	34%			
O=C(O)c1cccnc1 [nicotinic acid]			flashing or gastroenteric troubles		
